Measurements: US20250230193A1, “CYCLIC COMPOUND HAVING SELECTIVE KRAS INHIBITORY EFFECT ON HRAS AND NRAS” (CHUGAI SEIYAKU KABUSHIKI KAISHA, priority 2022, published 2025)
*1 amine or outer side, *2 acyl side, *3 side chain or, on linkers, in order; H or OH if unused. Where a SMILES comes first, the peptide text is derived from it. Bridges are numbered along the chain shown (N, C = ends). [ ]: non-standard residue; d: D form. The star is where a group is joined. hPhe(3,5-F2-4-CF3) = N[C@@H](CCc1cc(F)c(C(F)(F)F)c(F)c1)C(=O)O; hPhe(3-Cl-4-CF3) = N[C@@H](CCc1ccc(C(F)(F)F)c(Cl)c1)C(=O)O; X11 = C=CCN([C@@H](Cc1ccc(C(F)(F)F)cc1)C(=O)[*:2])[*:1]; NPrPhe(4-CF3) = CCCN[C@@H](Cc1ccc(C(F)(F)F)cc1)C(=O)O; NMeGly(cPent) = CN[C@H](C(=O)O)C1CCCC1; X9 = C[C@@](N[*:1])(C(=O)[*:2])C1CC1; NMeD = CN[C@@H](CC(=O)O)C(=O)O; NMeL = CN[C@@H](CC(C)C)C(=O)O; Morpholide = C1CN(*)CCO1; Ac5c = NC1(C(=O)O)CCCC1; Aze = O=C(O)[C@@H]1CCN1; Sar = CNCC(=O)O

How the values were obtained:
[1] = biological target: GDP-bound NRAS wild-type protein (Homo sapiens, UniProt P01111); assay: Binding to NRAS by surface plasmon resonance (SPR), Single Cycle Kinetics
Chain of GDP-bound NRAS wild-type protein (P01111 whole entry): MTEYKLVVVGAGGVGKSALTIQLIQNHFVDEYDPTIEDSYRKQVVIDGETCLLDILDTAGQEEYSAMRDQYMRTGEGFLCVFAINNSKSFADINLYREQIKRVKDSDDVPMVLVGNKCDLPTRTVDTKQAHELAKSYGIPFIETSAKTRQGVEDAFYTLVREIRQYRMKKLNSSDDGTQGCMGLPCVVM

[2] = biological target: GDP-bound HRAS wild-type protein (Homo sapiens, UniProt P01112); assay: Binding to HRAS by surface plasmon resonance (SPR), Single Cycle Kinetics
Chain of GDP-bound HRAS wild-type protein (P01112 whole entry): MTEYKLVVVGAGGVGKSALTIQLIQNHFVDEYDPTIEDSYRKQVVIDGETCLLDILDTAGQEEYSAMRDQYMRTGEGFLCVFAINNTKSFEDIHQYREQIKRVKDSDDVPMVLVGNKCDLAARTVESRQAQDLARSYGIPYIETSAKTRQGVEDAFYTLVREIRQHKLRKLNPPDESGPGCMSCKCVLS

[3] = KD ratio, GDP-bound NRAS wild-type vs GDP-bound KRAS wild-type, SPR
[4] = KD ratio, GDP-bound HRAS wild-type vs GDP-bound KRAS wild-type, SPR

Which “NRAS/KRAS (ratio of KD value for NRAS to KD value for KRAS)” value [1, 3] does the source give for `CCCN(C)C(=O)[C@@H]1CC(=O)N(C)[C@@H](CC(C)C)C(=O)N[C@@H]([C@@H](C)CC)C(=O)N(C)CC(=O)N(C)[C@H]2C/C=C\CCN(C2=O)[C@@H](Cc2ccc(C(F)(F)F)cc2)C(=O)N(C)CC(=O)N[C@@H](CCc2cc(F)c(C(F)(F)F)c(F)c2)C(=O)N2C[C@H](OCC)C[C@H]2C(=O)NC2(COC2)C(=O)N(C)[C@@H](C2CCCC2)C(=O)N1C` [PP1938] here?
The value was “AA (a compound having 20 or more is denoted as AA)”.

And the “HRAS/KRAS (ratio of KD value for HRAS to KD value for KRAS)” value [2, 4]?
Its value is “A (a compound having 10 or more and less than 20 is denoted as A)”.

For `CCO[C@@H]1C[C@H]2C(=O)NC3(CC(C)(C)C3)C(=O)N(C)[C@@H](C(CC)CC)C(=O)N(C)[C@H](C(=O)N(C)C)CC(=O)N(C)[C@H]3CC/C=C/c4ccc(cc4)C[C@@H](C(=O)N(C)CC(=O)N[C@@H](CCc4ccc(Cl)c(Cl)c4)C(=O)N2C1)N1CC/C=C\C[C@@H](C1=O)N(C)C(=O)CN(C)C(=O)[C@H]([C@@H](C)CC)NC3=O` [PP2589], which “NRAS/KRAS (ratio of KD value with respect to GDP-bound NRAS wild-type protein to KD value with respect to KRAS)” value ([1]; KD ratio NRAS/KRAS, class symbols) is on record?
The value was “AA (a compound having 20 or more is denoted as AA)”.

What about the “HRAS/KRAS (ratio of KD value with respect to GDP-bound HRAS wild-type protein to KD value with respect to KRAS)” value ([2]; KD ratio HRAS/KRAS, class symbols) of the same compound?
Its value is “A (a compound having 10 or more and less than 20 is denoted as A)”.

What does the source list for `CCCN1C(=O)CN(C)C(=O)[C@@H]2CCN2C(=O)[C@H]([C@@H](C)CC)NC(=O)[C@H](CC(C)C)N(C)C(=O)C[C@@H](C(=O)N2CCOCC2)N(C)C(=O)[C@H](C2CCCC2)N(C)C(=O)[C@](C)(C2CC2)NC(=O)[C@@H]2CCCN2C(=O)[C@H](CCc2cc(F)c(C(F)(F)F)c(F)c2)NC(=O)CN(C)C(=O)[C@@H]1Cc1ccc(C(F)(F)F)cc1` [PP0772] ([NMeL]I[Aze][Sar][NPrPhe(4-CF3)][Sar][hPhe(3,5-F2-4-CF3)]P[X9][NMeGly(cPent)][NMeD]-Morpholide; lactam N-11)?
NRAS/KRAS (ratio of KD value with respect to GDP-bound NRAS wild-type protein to KD value with respect to KRAS) ([1]; KD ratio NRAS/KRAS, SPR): B (a compound having 3 or more and less than 10 is denoted as B); HRAS/KRAS (ratio of KD value with respect to GDP-bound HRAS wild-type protein to KD value with respect to KRAS) ([2]; KD ratio HRAS/KRAS, SPR): B (a compound having 3 or more and less than 10 is denoted as B)

Which “NRAS/KRAS (ratio of KD for GDP-bound NRAS wild-type to KD for KRAS)” value ([1]; KD ratio NRAS/KRAS, SPR) does the source give for `C=CCN1C(=O)CN(C)C(=O)CN(C)C(=O)[C@H]([C@@H](C)CC)NC(=O)[C@H](CC(C)C)N(C)C(=O)C[C@@H](C(=O)N2CCOCC2)N(C)C(=O)[C@H](C2CCCC2)N(C)C(=O)C2(CCCC2)NC(=O)[C@@H]2CCCN2C(=O)[C@H](CCc2ccc(C(F)(F)F)c(Cl)c2)NC(=O)CN(C)C(=O)[C@@H]1Cc1ccc(C(F)(F)F)cc1` [PP0128] ([NMeL]I[Sar][Sar][X11][Sar][hPhe(3-Cl-4-CF3)]P[Ac5c][NMeGly(cPent)][NMeD]-Morpholide; lactam N-11) here?
The value was “C (A compound having a KD ratio of 0.1 or more and less than 3 is denoted as C)”.

And the “HRAS/KRAS (ratio of KD for GDP-bound HRAS wild-type to KD for KRAS)” value ([2]; KD ratio HRAS/KRAS, SPR)?
Its value is “C (A compound having a KD ratio of 0.1 or more and less than 3 is denoted as C)”.

Which results are given for `CC[C@H](C)[C@@H]1NC(=O)[C@H](CC)N(C)C(=O)C[C@@H](C(=O)N(C)C)N(C)C(=O)[C@H](C2CCCC2)N(C)C(=O)C2(CCC2)NC(=O)[C@@H]2CSCCN2C(=O)[C@H](CCc2cc(F)c(C(F)(F)F)c(F)c2)NC(=O)CN(C)C(=O)[C@H](Cc2ccc(C(F)(F)F)cc2)N2CC/C=C\C[C@@H](C2=O)N(C)C(=O)CN(C)C1=O` [PP1137]?
NRAS/KRAS (ratio of KD value with respect to NRAS to KD value with respect to KRAS) [1, 3]: AA (a compound having 20 or more is denoted as AA); HRAS/KRAS (ratio of KD value with respect to HRAS to KD value with respect to KRAS) [2, 4]: A (a compound having 10 or more and less than 20 is denoted as A)

`CCC[C@H]1C(=O)N[C@@H](C(CC)CC)C(=O)N(C)CC(=O)N(C)[C@H]2C/C=C\CCN(C2=O)[C@@H](Cc2ccc(C)cc2)C(=O)N(C)CC(=O)N[C@@H](CCc2ccc(C(F)(F)F)c(Cl)c2)C(=O)N2C[C@H](OCC)C[C@H]2C(=O)NC2(CC(C)(C)C2)C(=O)N(C)[C@@H](C2CCCC2)C(=O)N(C)[C@H](C(=O)N(C)C)CC(=O)N1C` [PP2209] was tested. Which “NRAS/KRAS (ratio of KD value with respect to NRAS to KD value with respect to KRAS)” value ([1]; SPR, GDP-bound NRAS wild-type vs GDP-bound KRAS wild-type) did it give?
Its value is “A (a compound having 10 or more and less than 20 is denoted as A)”.

And the “HRAS/KRAS (ratio of KD value with respect to HRAS to KD value with respect to KRAS)” value ([2]; SPR, GDP-bound HRAS wild-type vs GDP-bound KRAS wild-type)?
Its value is “A (a compound having 10 or more and less than 20 is denoted as A)”.

With `CC[C@H](C)[C@@H]1NC(=O)[C@H](CC(C)C)N(C)C(=O)C[C@@H](C(=O)N2CCOCC2)N(C)C(=O)[C@H](C2CCC2)N(C)C(=O)C2(CCCC2)NC(=O)[C@@H]2CCCN2C(=O)[C@H](CCc2cc(F)c(C(F)(F)F)c(F)c2)NC(=O)CN(C)C(=O)[C@H](Cc2ccc(C(F)(F)F)cc2)N2CCCCC[C@@H](C2=O)N(C)C(=O)CN(C)C1=O` [PP0504] as the compound, how does the “NRAS/KRAS (ratio of KD value with respect to GDP-bound NRAS wild-type protein to KD value with respect to KRAS)” value ([1]; KD ratio NRAS/KRAS, SPR) read?
Its value is “B (a compound having 3 or more and less than 10 is denoted as B)”.

And the “HRAS/KRAS (ratio of KD value with respect to GDP-bound HRAS wild-type protein to KD value with respect to KRAS)” value ([2]; KD ratio HRAS/KRAS, SPR)?
Its value is “B (a compound having 3 or more and less than 10 is denoted as B)”.
